Measurements reported in PubChem BioAssay AID206 (DTP/NCI, 2004).
Several values for one entry are separate records, joined by “and”; a condition that tells them apart may be missing. Equal values may be shown once. Inconclusive results are not listed.

Test system: nude mice, HT29 intrarenal xenograft, tumor weight T/C
Experiment: NCI In Vivo Anticancer Drug Screen. Data for tumor model HT29;CX-1 Human Adenocarcinoma (MER+) (intrarenal inoculation) in NU/NU Swiss (nude) mice
Details: endpoint: mean tumor weight change, higher = larger tumour
How it was run: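 Compounds were given to mice carrying transplantable tumors; a vehicle-dosed group served as control. The endpoint measured in each group was compared as a T/C quotient.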

[1] = dose: 300.0 mg/kg/injection, schedule: Q04DX004 (sc), vehicle: saline with Tween-80
[2] = dose: 600.0 mg/kg/injection, schedule: Q04DX004 (sc), vehicle: saline with Tween-80
[3] = dose: 2400.0 mg/kg/injection, schedule: Q04DX004 (sc), vehicle: saline with Tween-80
[4] = dose: 2.25 mg/kg/injection, schedule: Q04DX004 (sc), vehicle: Klucel (hydroxypropylcellulose) (HPC)
[5] = dose: 4.5 mg/kg/injection, schedule: Q04DX004 (sc), vehicle: Klucel (hydroxypropylcellulose) (HPC)
[6] = dose: 9.0 mg/kg/injection, schedule: Q04DX004 (sc), vehicle: Klucel (hydroxypropylcellulose) (HPC)
[7] = dose: 200.0 mg/kg/injection, schedule: Q01DX010 (sc), vehicle: Klucel (hydroxypropylcellulose) (HPC)
[8] = dose: 75.0 mg/kg/injection, schedule: Q04DX004 (sc), vehicle: saline with Tween-80
[9] = dose: 150.0 mg/kg/injection, schedule: Q04DX004 (sc), vehicle: saline with Tween-80
[10] = dose: 600.0 mg/kg/injection, schedule: Q04DX004 (sc), vehicle: Klucel (hydroxypropylcellulose) (HPC)
[11] = dose: 1200.0 mg/kg/injection, schedule: Q04DX004 (sc), vehicle: Klucel (hydroxypropylcellulose) (HPC)
[12] = dose: 2400.0 mg/kg/injection, schedule: Q04DX004 (sc), vehicle: Klucel (hydroxypropylcellulose) (HPC)
[13] = dose: 150.0 mg/kg/injection, schedule: Q04DX004 (sc), vehicle: Klucel (hydroxypropylcellulose) (HPC)
[14] = dose: 75.0 mg/kg/injection, schedule: Q04DX004 (sc), vehicle: Klucel (hydroxypropylcellulose) (HPC)
[15] = dose: 300.0 mg/kg/injection, schedule: Q04DX004 (sc), vehicle: Klucel (hydroxypropylcellulose) (HPC)

In the case of `COc1cc(NS(C)(=O)=O)ccc1Nc1c2ccccc2nc2ccccc12`, the T/C (dose: 0.38 mg/kg/injection, schedule: Q01DX010 (sc), vehicle: other) is reported as 33 % of control, the T/C (dose: 0.75 mg/kg/injection, schedule: Q01DX010 (sc), vehicle: lactic acid) is reported as 43 % of control and the T/C (dose: 0.75 mg/kg/injection, schedule: Q01DX010 (sc), vehicle: other) is reported as 15 % of control. For the same compound, the T/C (dose: 0.78 mg/kg/injection, schedule: Q01DX010 (sc), vehicle: lactic acid) was 15 % of control, the T/C (dose: 1.5 mg/kg/injection, schedule: Q01DX010 (sc), vehicle: lactic acid) was 30 % of control and the T/C (dose: 1.5 mg/kg/injection, schedule: Q01DX010 (sc), vehicle: other) was 39 % of control. The T/C (dose: 3.0 mg/kg/injection, schedule: Q01DX010 (sc), vehicle: other) was 99 % of control.

For `CC(=S)NC(O)C(=O)c1ccccc1` (stereo unspecified), the T/C [1] was 116 % of control.

In the case of `CCOC(=O)c1ccc(NC(=O)Nc2nccs2)cc1`, the T/C (dose: 100.0 mg/kg/injection, schedule: Q01DX010 (sc), vehicle: saline with Tween-80) is reported as 54 % of control, the T/C (dose: 200.0 mg/kg/injection, schedule: Q01DX010 (sc), vehicle: saline with Tween-80) is reported as 58 % of control and the T/C (dose: 400.0 mg/kg/injection, schedule: Q01DX010 (sc), vehicle: saline with Tween-80) is reported as 74 % of control. The T/C (dose: 800.0 mg/kg/injection, schedule: Q01DX010 (sc), vehicle: saline with Tween-80) was 67 % of control.

`Cc1cc(O)c(N=Nc2ccc(C(=O)O)cc2)cc1C` was tested, and the T/C [2] was 107 % of control and the T/C [3] was 154 % of control.

For `COc1ccc(-c2csc(=[N+]3CCCCC3)s2)cc1`, the T/C (dose: 6.25 mg/kg/injection, schedule: Q04DX004 (sc), vehicle: water) was 227 % of control and the T/C (dose: 12.5 mg/kg/injection, schedule: Q04DX004 (sc), vehicle: water) was 118 % of control.

`CCC(C)Nc1ccc(N)cc1` (stereo unspecified) was tested, and the T/C [4] was 64 % of control, the T/C [5] was 64 % of control and the T/C [6] was 101 % of control.

For `OC(CBr)C(O)C(O)C(O)CBr` (stereo unspecified), the T/C (dose: 15.0 mg/kg/injection, schedule: Q01DX010 (sc), vehicle: Klucel (hydroxypropylcellulose) (HPC)) was 82 % of control, the T/C (dose: 30.0 mg/kg/injection, schedule: Q01DX010 (sc), vehicle: Klucel (hydroxypropylcellulose) (HPC)) was 44 % of control and the T/C (dose: 120.0 mg/kg/injection, schedule: Q01DX010 (sc), vehicle: Klucel (hydroxypropylcellulose) (HPC)) was 43 % of control. For the same compound, the T/C [7] was 101 % of control and the T/C (dose: 400.0 mg/kg/injection, schedule: Q01DX010 (sc), vehicle: Klucel (hydroxypropylcellulose) (HPC)) was 59 % of control.

`CC(=O)ON(C(C)=O)c1ccc(C(N)=O)cc1` was tested, and the T/C [8] was 83 % of control, the T/C [9] was 77 % of control and the T/C [1] was 60 % of control. The T/C [2] was 71 % of control and 78 % of control, the T/C (dose: 1200.0 mg/kg/injection, schedule: Q04DX004 (sc), vehicle: saline with Tween-80) was 103 % of control and the T/C [3] was 61 % of control.

`[N-]=[N+]=CC(=O)CCC(=O)C=[N+]=[N-]` was tested, and the T/C (dose: 36.0 mg/kg/injection, schedule: Q04DX004 (sc), vehicle: DMSO) was 85 % of control and 99 % of control and the T/C (dose: 72.0 mg/kg/injection, schedule: Q04DX004 (sc), vehicle: DMSO) was 79 % of control.

For `Cc1ccc(C2NC(=O)c3ccccc3N2)s1` (stereo unspecified), the T/C [10] was 101 % of control, the T/C [11] was 95 % of control and the T/C [12] was 96 % of control. The T/C (dose: 4800.0 mg/kg/injection, schedule: Q04DX004 (sc), vehicle: Klucel (hydroxypropylcellulose) (HPC)) was 92 % of control.

For `CCCN1COC(OCC)C(C)(C)C1` (stereo unspecified), the T/C [9] was 114 % of control, the T/C [1] was 79 % of control and the T/C [2] was 96 % of control.

For `Cc1cc(N(CCOS(C)(=O)=O)CCOS(C)(=O)=O)ccc1C=Nc1ccc(-c2nc(Cc3ccccc3)sc2C)cc1`, the T/C (dose: 50.0 mg/kg/injection, schedule: Q01DX010 (sc), vehicle: Klucel (hydroxypropylcellulose) (HPC)) was 92 % of control, the T/C (dose: 100.0 mg/kg/injection, schedule: Q01DX010 (sc), vehicle: Klucel (hydroxypropylcellulose) (HPC)) was 80 % of control and the T/C [7] was 117 % of control.

In the case of `C1CN(P2(N3CC3)=NP(N3CC3)(N3CC3)=NP(N3CC3)(N3CC3)=N2)CCO1` (stereo unspecified), the T/C (dose: 6.25 mg/kg/injection, schedule: Q01DX010 (sc), vehicle: saline) is reported as 50 % of control, the T/C (dose: 12.5 mg/kg/injection, schedule: Q01DX010 (sc), vehicle: saline) is reported as 52 % of control and the T/C (dose: 25.0 mg/kg/injection, schedule: Q01DX010 (sc), vehicle: saline) is reported as 27 % of control.

For `COc1cc2c[n+](C)c3c4cc5c(cc4ccc3c2cc1OC)OCO5`, the T/C (dose: 50.0 mg/kg/injection, schedule: Q04DX004 (sc), vehicle: saline with Tween-80) was 67 % of control, the T/C (dose: 100.0 mg/kg/injection, schedule: Q04DX004 (sc), vehicle: saline with Tween-80) was 48 % of control and the T/C (dose: 200.0 mg/kg/injection, schedule: Q04DX004 (sc), vehicle: saline with Tween-80) was 79 % of control. The T/C (dose: 400.0 mg/kg/injection, schedule: Q04DX004 (sc), vehicle: saline with Tween-80) was 60 % of control.

In the case of `C[Si](C)(CCl)N[Si](C)(C)CCl`, the T/C [8] is reported as 91 % of control, the T/C [9] is reported as 84 % of control and the T/C [1] is reported as 101 % of control. The T/C [2] was 78 % of control.

With `CCCCCCCC(=O)OCC(=O)[C@]1(O)Cc2c(O)c3c(c(O)c2[C@@H](OC2CC(N)C(O)C(C)O2)C1)C(=O)c1c(OC)cccc1C3=O` (stereo partly specified) the T/C (dose: 2.0 mg/kg/injection, schedule: Q04DX004 (sc), vehicle: suspension in saline) was 90 % of control, the T/C (dose: 4.0 mg/kg/injection, schedule: Q01DX010 (sc), vehicle: suspension in saline) was 222 % of control and the T/C (dose: 4.0 mg/kg/injection, schedule: Q04DX004 (sc), vehicle: suspension in saline) was 50 % of control. For the same compound, the T/C (dose: 5.0 mg/kg/injection, schedule: Q04DX004 (sc), vehicle: suspension in saline) was 106 % of control, the T/C (dose: 8.0 mg/kg/injection, schedule: Q01DX010 (sc), vehicle: suspension in saline) was 67 % of control and the T/C (dose: 8.0 mg/kg/injection, schedule: Q04DX004 (sc), vehicle: suspension in saline) was 42 % of control. For the same compound, the T/C (dose: 10.0 mg/kg/injection, schedule: Q04DX004 (sc), vehicle: suspension in saline) was 29 % of control, the T/C (dose: 16.0 mg/kg/injection, schedule: Q04DX004 (sc), vehicle: suspension in saline) was 33 % of control and the T/C (dose: 20.0 mg/kg/injection, schedule: Q04DX004 (sc), vehicle: suspension in saline) was 42 % of control.

`O=c1oc2c(O)c(O)cc3c(=O)oc4c(O)c(O)cc1c4c23` was tested, and the T/C [13] was 93 % of control, the T/C [10] was 161 % of control and the T/C [11] was 201 % of control.

With `CC[n+]1c(-c2ccccc2)c2cc(N)ccc2c2ccc(N)cc21` the T/C (dose: 15.0 mg/kg/injection, schedule: Q04DX004 (sc), vehicle: saline) was 119 % of control, the T/C (dose: 30.0 mg/kg/injection, schedule: Q04DX004 (sc), vehicle: saline) was 66 % of control and the T/C (dose: 60.0 mg/kg/injection, schedule: Q04DX004 (sc), vehicle: saline) was 53 % of control.

In the case of `O=S(=O)(N=N/C=C1\C=CC=CN1O)c1cccs1`, the T/C [9] is reported as 75 % of control.

In the case of `COC(=O)Nc1cn2cc(C(=O)c3cccs3)ccc2n1`, the T/C [14] is reported as 91 % of control, the T/C [13] is reported as 65 % of control and the T/C [15] is reported as 50 % of control. For the same compound, the T/C [10] was 54 % of control and 76 % of control, the T/C [11] was 67 % of control and the T/C [12] was 36 % of control.

With `COC1/C=C\C=C(/C)C(=O)NC2=CC(=O)C=C(C2=O)C(OC)C(C)CC(OC)C(OC)C(C)/C=C(/C)C1OC(N)=O` (stereo unspecified) the T/C [4] was 92 % of control and 95 % of control, the T/C [5] was 33 % of control and the T/C [6] was 4 % of control.

`COc1cc([C@@H]2c3cc4c(cc3[C@@H](OC3OC5COC(C)OC5C(O)C3O)[C@H]3COC(=O)[C@H]23)OCO4)cc(OC)c1O` (stereo partly specified) was tested, and the T/C (dose: 4.0 mg/kg/injection, schedule: Q01DX010 (sc), vehicle: saline) was 71 % of control and the T/C (dose: 32.0 mg/kg/injection, schedule: Q01DX010 (sc), vehicle: saline) was 62 % of control.

With `O=C(O)CC(=O)O.[NH-]CC[NH-].[Pt+2]` the T/C (dose: 25.0 mg/kg/injection, schedule: Q01DX010 (sc), vehicle: dextrose) was 29 % of control and the T/C (dose: 50.0 mg/kg/injection, schedule: Q01DX010 (sc), vehicle: dextrose) was 41 % of control.

`O=NN(CCCl)C(=O)Oc1ccc(OC(=O)N(CCCl)N=O)cc1` was tested, and the T/C (dose: 37.5 mg/kg/injection, schedule: Q04DX004 (sc), vehicle: Klucel (hydroxypropylcellulose) (HPC)) was 44 % of control, the T/C [14] was 67 % of control and the T/C [13] was 29 % of control. The T/C [15] was 23 % of control.
